Our source for the Ki values is patent US10233188B2, “CDK2/4/6 inhibitors” (priority 2016, dated 2019).

One test deals with CDK6/Cyclin D1 (Homo sapiens (Human), UniProt Q00534). Kind of test: biochemical. Conditions: CDK6_Ki (nM), non-phosphorylated CDK6/Cyclin D1, 2 mM ATP, Morrison fit.
Sequence of CDK6/Cyclin D1 (Q00534 whole entry): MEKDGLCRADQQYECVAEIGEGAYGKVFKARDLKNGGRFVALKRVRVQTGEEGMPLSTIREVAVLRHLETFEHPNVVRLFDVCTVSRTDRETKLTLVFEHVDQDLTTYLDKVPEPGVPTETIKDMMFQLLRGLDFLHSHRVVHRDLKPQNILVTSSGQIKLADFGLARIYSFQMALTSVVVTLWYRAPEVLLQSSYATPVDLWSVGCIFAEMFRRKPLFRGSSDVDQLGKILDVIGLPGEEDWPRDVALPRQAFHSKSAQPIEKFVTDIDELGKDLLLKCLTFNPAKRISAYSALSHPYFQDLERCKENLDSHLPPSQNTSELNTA
Sequence of CDK6/Cyclin D1 (P24385 whole entry partner): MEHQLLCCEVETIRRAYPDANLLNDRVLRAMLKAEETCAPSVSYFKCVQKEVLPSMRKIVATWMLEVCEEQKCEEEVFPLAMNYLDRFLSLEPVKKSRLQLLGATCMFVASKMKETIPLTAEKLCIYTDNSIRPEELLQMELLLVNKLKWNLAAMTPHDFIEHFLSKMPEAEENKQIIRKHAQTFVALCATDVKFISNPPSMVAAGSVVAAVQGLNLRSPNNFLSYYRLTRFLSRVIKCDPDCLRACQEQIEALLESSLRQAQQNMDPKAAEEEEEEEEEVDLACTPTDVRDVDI
Regarding `CCc1cc2cnc(NC3CCN(S(C)(=O)=O)CC3)nc2n(C2CCCC2)c1=O` [Example 141, 8-cyclopentyl-6-ethyl-2-{[1-(methylsulfonyl)piperidin-4-yl]amino}pyrido[2,3-d]pyrimidin-7(8H)-one], the affinity, expressed as Ki, was 0.37 nM. Regarding `Cc1cc2cnc(NC3CCN(S(=O)(=O)C4CCS(=O)(=O)C4)CC3)nc2n([C@H]2CCC[C@]2(C)O)c1=O` (single isomer, unassigned; isomer c) [Example 108, (+)-2-[(1-{[(3ξ)-1,1-dioxidotetrahydrothiophen-3-yl]sulfonyl}piperidin-4-yl)amino]-8-[(1R*,2R*)-2-hydroxy-2-methylcyclopentyl]-6-methylpyrido[2,3-d]pyrimidin-7(8H)-one-Isomer C], the affinity corresponds to a Ki of 3.99 nM. In turn, `C[C@]1(O)CCC[C@@H]1n1c(=O)c(CCO)cc2cnc(NC3CCN(S(C)(=O)=O)CC3)nc21` (single isomer, unassigned) [Example 123, (+)-6-(2-hydroxyethyl)-8-[(1R*,2R*)-2-hydroxy-2-methylcyclopentyl]-2-{[1-(methylsulfonyl)piperidin-4-yl]amino}pyrido[2,3-d]pyrimidin-7(8H)-one] returned a Ki of 6.14 nM. The same measure, in the same setting: to `CS(=O)(=O)N1CC[C@@H](Nc2ncc3cc(Cl)c(=O)n(C4CCCC4)c3n2)[C@@H](F)C1` (single isomer, unassigned) [Example 153, (+)-6-chloro-8-cyclopentyl-2-{[(3R*,4S*)-3-fluoro-1-(methylsulfonyl)piperidin-4-yl]amino}pyrido[2,3-d]pyrimidin-7(8H)-one] belongs 2.23 nM; to `CS(=O)(=O)N1CC[C@H](Nc2ncc3cc(Cl)c(=O)n(C4CCCC4)c3n2)[C@H](F)C1` (single isomer, unassigned) [Example 152, (−)-6-chloro-8-cyclopentyl-2-{[(3R*,4S*)-3-fluoro-1-(methylsulfonyl)piperidin-4-yl]amino}pyrido[2,3-d]pyrimidin-7(8H)-one], 0.43 nM; to `CS(=O)(=O)N1CC[C@@H](Nc2ncc3cc(Cl)c(=O)n(C4CCCC4)c3n2)[C@H](F)C1` (single isomer, unassigned) [Example 155, (+)-6-chloro-8-cyclopentyl-2-{[(3S*,4S*)-3-fluoro-1-(methylsulfonyl)piperidin-4-yl]amino}pyrido[2,3-d]pyrimidin-7(8H)-one], 2.26 nM.

`CS(=O)(=O)N1CC[C@H](Nc2ncc3cc(Cl)c(=O)n(C4CCCC4)c3n2)[C@@H](F)C1` (single isomer, unassigned) [Example 154, (−)-6-chloro-8-cyclopentyl-2-{[(3S*,4S*)-3-fluoro-1-(methylsulfonyl)piperidin-4-yl]amino}pyrido[2,3-d]pyrimidin-7(8H)-one] came in with a Ki of 0.27 nM. Still for that read-out and setting: in the case of `CS(=O)(=O)N1CC[C@@H](Nc2ncc3cc(N)c(=O)n(C4CCCC4)c3n2)[C@@H](F)C1` (single isomer, unassigned; isomer a) [Example 151, 6-amino-8-cyclopentyl-2-{[(3R*,4S*)-3-fluoro-1-(methylsulfonyl)piperidin-4-yl]amino}pyrido[2,3-d]pyrimidin-7(8H)-one-Isomer A] it was 7.29 nM.

A further test deals with CDK2/Cyclin E1 (Homo sapiens (Human), UniProt P24941). Description: biochemical. Conditions: CDK2_Ki (nM), phosphorylated CDK2/Cyclin E1, 150 μM ATP, Morrison tight-binding fit.
Protocol: The assay was initiated with the addition of ATP, following a fifteen minutes pre-incubation of enzyme and inhibitor at room temperature in the reaction mixture. The reaction was stopped after 45 minutes at room temperature by the addition of 50 μL of 80 mM EDTA, pH 7.5.
In turn, `CCc1cc2cnc(NC3CCN(S(C)(=O)=O)CC3)nc2n(C2CCCC2)c1=O` [Example 141, 8-cyclopentyl-6-ethyl-2-{[1-(methylsulfonyl)piperidin-4-yl]amino}pyrido[2,3-d]pyrimidin-7(8H)-one] came in with a Ki of 1.25 nM. Still for that read-out and setting: in the case of `Cc1cc2cnc(NC3CCN(S(=O)(=O)C4CCS(=O)(=O)C4)CC3)nc2n([C@H]2CCC[C@]2(C)O)c1=O` (single isomer, unassigned; isomer c) [Example 108, (+)-2-[(1-{[(3ξ)-1,1-dioxidotetrahydrothiophen-3-yl]sulfonyl}piperidin-4-yl)amino]-8-[(1R*,2R*)-2-hydroxy-2-methylcyclopentyl]-6-methylpyrido[2,3-d]pyrimidin-7(8H)-one-Isomer C] it was 3.27 nM. On the same count and under the same terms, to `C[C@]1(O)CCC[C@@H]1n1c(=O)c(CCO)cc2cnc(NC3CCN(S(C)(=O)=O)CC3)nc21` (single isomer, unassigned) [Example 123, (+)-6-(2-hydroxyethyl)-8-[(1R*,2R*)-2-hydroxy-2-methylcyclopentyl]-2-{[1-(methylsulfonyl)piperidin-4-yl]amino}pyrido[2,3-d]pyrimidin-7(8H)-one] belongs 0.76 nM. `CN(C)S(=O)(=O)N1CCC(Nc2ncc3cc(CCO)c(=O)n(C4CCCC4)c3n2)CC1` [Example 27, 4-{[8-cyclopentyl-6-(2-hydroxyethyl)-7-oxo-7,8-dihydropyrido[2,3-d]pyrimidin-2-yl]amino}-N,N-dimethylpiperidine-1-sulfonamide] returned a Ki of 3.85 nM. Compound `CS(=O)(=O)N1CCC(Nc2ncc3cc(CC(F)F)c(=O)n(C4CCCC4)c3n2)CC1` [Example 149, 8-cyclopentyl-6-(2,2-difluoroethyl)-2-{[1-(methylsulfonyl)piperidin-4-yl]amino}pyrido[2,3-d]pyrimidin-7(8H)-one] showed an inhibition constant Ki of 2.29 nM.

`CNS(=O)(=O)N1CCC(Nc2ncc3cc(C)c(=O)n([C@H]4CCC[C@]4(C)O)c3n2)CC1` (single isomer, unassigned) [Example 95, (+)-4-({8-[(1R*,2R*)-2-hydroxy-2-methylcyclopentyl]-6-methyl-7-oxo-7,8-dihydropyrido[2,3-d]pyrimidin-2-yl}amino)-N-methylpiperidine-1-sulfonamide] gave a Ki of 1.39 nM. Consider `CS(=O)(=O)N1CC[C@@H](Nc2ncc3cc(CC(N)=O)c(=O)n(C4CCCC4)c3n2)[C@H](F)C1` (single isomer, unassigned) [Example 161, (+)-2-(8-cyclopentyl-2-{[(3S*,4S*)-3-fluoro-1-(methylsulfonyl)piperidin-4-yl]amino}-7-oxo-7,8-dihydropyrido[2,3-d]pyrimidin-6-yl)acetamide], for which the affinity, expressed as Ki, was 135 nM. `CC1(C)CC(Nc2ncc3cc(CCO)c(=O)n(C4CCCC4)c3n2)CCN1S(C)(=O)=O` (single isomer, unassigned; (-)) [Example 163, (−)-8-cyclopentyl-2-{[2,2-dimethyl-1-(methylsulfonyl)piperidin-4-yl]amino}-6-(2-hydroxyethyl)pyrido[2,3-d]pyrimidin-7(8H)-one] registered an inhibition constant (Ki) of 63.2 nM. Take `C[C@H]1[C@@H](O)CCC[C@@H]1n1c(=O)ccc2cnc(NC3CCN(S(C)(=O)=O)CC3)nc21` (single isomer, unassigned) [Example 222, (+)-8-[(1S*,2R*,3S*)-3-hydroxy-2-methylcyclohexyl]-2-{[1-(methylsulfonyl)piperidin-4-yl]amino}pyrido[2,3-d]pyrimidin-7(8H)-one]: the Ki was found to be 2.06 nM.

`CNS(=O)(=O)N1CCC(Nc2ncc3ccc(=O)n([C@H]4CCC[C@H]4C)c3n2)CC1` [Example 45, N-methyl-4-({8-[(1S,2R)-2-methylcyclopentyl]-7-oxo-7,8-dihydropyrido[2,3-d]pyrimidin-2-yl}amino)piperidine-1-sulfonamide] showed a Ki of 0.93 nM. Same read-out and setting: in the case of `CS(=O)(=O)N1CCC(Nc2ncc3ccc(=O)n([C@@H]4CC[C@@H](O)C4)c3n2)CC1` (single isomer, unassigned) [Example 54, (−)-8-[(1R*,3R*)-3-hydroxycyclopentyl]-2-{[1-(methylsulfonyl)piperidin-4-yl]amino}pyrido[2,3-d]pyrimidin-7(8H)-one] it was 1.44 nM; in that of `C[C@H]1CC[C@@H](O)C[C@@H]1n1c(=O)ccc2cnc(NC3CCN(S(C)(=O)=O)CC3)nc21` [Example 216, 8-[(1S,2S,5R)-5-hydroxy-2-methylcyclohexyl]-2-{[1-(methylsulfonyl)piperidin-4-yl]amino}pyrido[2,3-d]pyrimidin-7(8H)-one], 1.48 nM. The same measure, in the same setting: to `C[C@@H]1[C@H](O)CC[C@H]1n1c(=O)c(CC(F)F)cc2cnc(NC3CCN(S(C)(=O)=O)CC3)nc21` (single isomer, unassigned) [Example 206, (−)-6-(2,2-difluoroethyl)-8-[(1R*,2S*,3R*)-3-hydroxy-2-methylcyclopentyl]-2-{[1-(methylsulfonyl)piperidin-4-yl]amino}pyrido[2,3-d]pyrimidin-7(8H)-one] belongs 0.57 nM; to `COCCc1cc2cnc(N[C@@H]3CCN(S(C)(=O)=O)C[C@H]3F)nc2n(C2CCCC2)c1=O` (single isomer, unassigned) [Example 159, (+)-8-cyclopentyl-2-{[(3S*,4S*)-3-fluoro-1-(methylsulfonyl)piperidin-4-yl]amino}-6-(2-methoxyethyl)pyrido[2,3-d]pyrimidin-7(8H)-one], 95.2 nM; to `C[C@]1(O)CCC[C@@H]1n1c(=O)ccc2cnc(NC3CCN(S(=O)(=O)NC[C@H]4CCCO4)CC3)nc21` (single isomer, unassigned) [Example 65, (+)-4-({8-[(1R*,2R*)-2-hydroxy-2-methylcyclopentyl]-7-oxo-7,8-dihydropyrido[2,3-d]pyrimidin-2-yl}amino)-N-[(2R)-tetrahydrofuran-2-ylmethyl]piperidine-1-sulfonamide], 4.85 nM. Still for that read-out and setting: to `CNS(=O)(=O)N1CCC(Nc2ncc3cc(C)c(=O)n([C@@H]4CCC[C@H]4O)c3n2)CC1` [Example 55, 4-({8-[(1R,2R)-2-hydroxycyclopentyl]-6-methyl-7-oxo-7,8-dihydropyrido[2,3-d]pyrimidin-2-yl}amino)-N-methylpiperidine-1-sulfonamide] belongs 4.66 nM. For `Cc1cc2cnc(NC3CCN(S(=O)(=O)NC[C@H]4CCCO4)CC3)nc2n([C@H]2CCC[C@]2(C)O)c1=O` (single isomer, unassigned) [Example 103, (+)-4-({8-[(1R*,2R*)-2-hydroxy-2-methylcyclopentyl]-6-methyl-7-oxo-7,8-dihydropyrido[2,3-d]pyrimidin-2-yl}amino)-N-[(2R)-tetrahydrofuran-2-ylmethyl]piperidine-1-sulfonamide], the inhibitory constant (Ki) was 3.46 nM. The compound `C[C@@H]1CCC[C@@H]1n1c(=O)c(Cl)cc2cnc(NC3CCN(S(C)(=O)=O)CC3)nc21` [Example 39, 6-chloro-8-[(1S,2R)-2-methylcyclopentyl]-2-{[1-(methylsulfonyl)piperidin-4-yl]amino}pyrido[2,3-d]pyrimidin-7(8H)-one] yielded an inhibition constant Ki of 1.28 nM. On the same count and under the same terms, to `CC(=O)c1c(C)c2cnc(NC3CCN(S(C)(=O)=O)CC3)nc2n([C@H]2CCC[C@]2(C)O)c1=O` (single isomer, unassigned) [Example 178, (+)-6-acetyl-8-[(1R*,2R*)-2-hydroxy-2-methylcyclopentyl]-5-methyl-2-{[1-(methylsulfonyl)piperidin-4-yl]amino}pyrido[2,3-d]pyrimidin-7(8H)-one] belongs 9.04 nM; to `C[C@@H]1[C@H](O)CC[C@@H]1n1c(=O)ccc2cnc(NC3CCN(S(C)(=O)=O)CC3)nc21` (single isomer, unassigned) [Example 207, (+)-8-[(1R*,2R*,3S*)-3-hydroxy-2-methylcyclopentyl]-2-{[1-(methylsulfonyl)piperidin-4-yl]amino}pyrido[2,3-d]pyrimidin-7(8H)-one], 5.05 nM.

What is called Ki is the equilibrium dissociation constant of an inhibitor or competing ligand from its target. High values mean lower affinity, low ones higher affinity.
